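Each compound was tested at five concentrations against cells in 96-well plates for 48 hours. The concentration for full growth arrest is given as TGI.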
Experiments:
Test in all cases: inhibition of tumour cell growth, NCI panel, 48 h
786-0 renal = tested on: 786-0 renal
A498 renal = tested on: A498 renal
A549 NSCLC = tested on: A549 NSCLC
ACHN renal = tested on: ACHN renal
BT-549 breast = tested on: BT-549 breast
CAKI-1 renal = tested on: CAKI-1 renal
CCRF-CEM leukemia = tested on: CCRF-CEM leukemia
COLO 205 colon = tested on: COLO 205 colon
DU-145 prostate = tested on: DU-145 prostate
EKVX NSCLC = tested on: EKVX NSCLC
HCC-2998 colon = tested on: HCC-2998 colon
HCT-116 colon = tested on: HCT-116 colon
HCT-15 colon = tested on: HCT-15 colon
HL-60(TB) leukemia = tested on: HL-60(TB) leukemia
HOP-92 NSCLC = tested on: HOP-92 NSCLC
HS 578T breast = tested on: HS 578T breast
HT29 colon = tested on: HT29 colon
IGROV1 ovarian = tested on: IGROV1 ovarian
K-562 leukemia = tested on: K-562 leukemia
KM12 colon = tested on: KM12 colon
LOX IMVI melanoma = tested on: LOX IMVI melanoma
M14 melanoma = tested on: M14 melanoma
MALME-3M melanoma = tested on: MALME-3M melanoma
MCF7 breast = tested on: MCF7 breast
MDA-MB-231 breast = tested on: MDA-MB-231 breast
MDA-MB-435 = tested on: MDA-MB-435
MDA-N = tested on: MDA-N
MOLT-4 leukemia = tested on: MOLT-4 leukemia
NCI-H226 lung = tested on: NCI-H226 lung
NCI-H23 lung = tested on: NCI-H23 lung
NCI-H460 lung = tested on: NCI-H460 lung
NCI-H522 lung = tested on: NCI-H522 lung
NCI/ADR-RES ovarian = tested on: NCI/ADR-RES ovarian
OVCAR-3 ovarian = tested on: OVCAR-3 ovarian
OVCAR-4 ovarian = tested on: OVCAR-4 ovarian
OVCAR-5 ovarian = tested on: OVCAR-5 ovarian
OVCAR-8 ovarian = tested on: OVCAR-8 ovarian
PC-3 prostate = tested on: PC-3 prostate
RPMI-8226 leukemia = tested on: RPMI-8226 leukemia
SF-268 CNS = tested on: SF-268 CNS
SF-295 CNS = tested on: SF-295 CNS
SF-539 CNS = tested on: SF-539 CNS
SK-MEL-2 melanoma = tested on: SK-MEL-2 melanoma
SK-MEL-28 melanoma = tested on: SK-MEL-28 melanoma
SK-MEL-5 melanoma = tested on: SK-MEL-5 melanoma
SK-OV-3 ovarian = tested on: SK-OV-3 ovarian
SN12C renal = tested on: SN12C renal
SNB-19 CNS = tested on: SNB-19 CNS
SNB-75 CNS = tested on: SNB-75 CNS
SW-620 colon = tested on: SW-620 colon
T-47D breast = tested on: T-47D breast
TK-10 renal = tested on: TK-10 renal
U251 CNS = tested on: U251 CNS
UACC-257 melanoma = tested on: UACC-257 melanoma
UACC-62 melanoma = tested on: UACC-62 melanoma
UO-31 renal = tested on: UO-31 renal
HOP-62 NSCLC = tested on: HOP-62 NSCLC
RXF 393 renal = tested on: RXF 393 renal

Compound: C=C1C(NC)CCC23CC24CCC2(C)C(C(C)=O)C(O)CC2(C)C4CCC13 (stereo unspecified)
- TGI (786-0 renal): > 100 µM
- TGI (A498 renal): > 100 µM
- TGI (A549 NSCLC): > 100 µM
- TGI (ACHN renal): > 100 µM
- TGI (BT-549 breast): > 100 µM
- TGI (CAKI-1 renal): > 100 µM
- TGI (CCRF-CEM leukemia): > 100 µM
- TGI (COLO 205 colon): > 100 µM
- TGI (DU-145 prostate): > 100 µM
- TGI (EKVX NSCLC): > 100 µM
- TGI (HCC-2998 colon): > 100 µM
- TGI (HCT-116 colon): > 100 µM
- TGI (HCT-15 colon): > 100 µM
- TGI (HL-60(TB) leukemia): > 100 µM
- TGI (HOP-92 NSCLC): > 100 µM
- TGI (HS 578T breast): > 100 µM
- TGI (HT29 colon): > 100 µM
- TGI (IGROV1 ovarian): > 100 µM
- TGI (K-562 leukemia): > 100 µM
- TGI (KM12 colon): > 100 µM
- TGI (LOX IMVI melanoma): > 100 µM
- TGI (M14 melanoma): > 100 µM
- TGI (MALME-3M melanoma): > 100 µM
- TGI (MCF7 breast): > 100 µM
- TGI (MDA-MB-231 breast): > 100 µM
- TGI (MDA-MB-435): > 100 µM
- TGI (MDA-N): > 100 µM
- TGI (MOLT-4 leukemia): > 100 µM
- TGI (NCI-H226 lung): > 100 µM
- TGI (NCI-H23 lung): > 100 µM
- TGI (NCI-H460 lung): > 100 µM
- TGI (NCI-H522 lung): > 100 µM
- TGI (NCI/ADR-RES ovarian): > 100 µM
- TGI (OVCAR-3 ovarian): > 100 µM
- TGI (OVCAR-4 ovarian): > 100 µM
- TGI (OVCAR-5 ovarian): > 100 µM
- TGI (OVCAR-8 ovarian): > 100 µM
- TGI (PC-3 prostate): > 100 µM
- TGI (RPMI-8226 leukemia): > 100 µM
- TGI (SF-268 CNS): > 100 µM
- TGI (SF-295 CNS): 82.5 µM
- TGI (SF-539 CNS): > 100 µM
- TGI (SK-MEL-2 melanoma): > 100 µM
- TGI (SK-MEL-28 melanoma): > 100 µM
- TGI (SK-MEL-5 melanoma): > 100 µM
- TGI (SK-OV-3 ovarian): > 100 µM
- TGI (SN12C renal): > 100 µM
- TGI (SNB-19 CNS): > 100 µM
- TGI (SNB-75 CNS): > 100 µM
- TGI (SW-620 colon): > 100 µM
- TGI (T-47D breast): > 100 µM
- TGI (TK-10 renal): > 100 µM
- TGI (U251 CNS): > 100 µM
- TGI (UACC-257 melanoma): > 100 µM
- TGI (UACC-62 melanoma): > 100 µM
- TGI (UO-31 renal): > 100 µM

Compound: c1ccc([Si](OCCN2CC2)(c2ccccc2)c2ccccc2)cc1
- TGI (786-0 renal): 27.2 µM
- TGI (A549 NSCLC): 24.1 µM
- TGI (ACHN renal): 27.9 µM
- TGI (BT-549 breast): 31.5 µM
- TGI (CAKI-1 renal): 44.8 µM
- TGI (CCRF-CEM leukemia): 49.5 µM
- TGI (COLO 205 colon): 24.7 µM
- TGI (DU-145 prostate): 27.5 µM
- TGI (EKVX NSCLC): 25.4 µM
- TGI (HCC-2998 colon): 26.4 µM
- TGI (HCT-116 colon): 27.7 µM
- TGI (HCT-15 colon): 21.9 µM
- TGI (HL-60(TB) leukemia): 50.8 µM
- TGI (HOP-62 NSCLC): 30 µM
- TGI (HOP-92 NSCLC): 18.4 µM
- TGI (HS 578T breast): 24.9 µM
- TGI (HT29 colon): 27 µM
- TGI (IGROV1 ovarian): 25.5 µM
- TGI (K-562 leukemia): 26.8 µM
- TGI (KM12 colon): 35.2 µM
- TGI (LOX IMVI melanoma): 27.6 µM
- TGI (M14 melanoma): 29.3 µM
- TGI (MALME-3M melanoma): 31.3 µM
- TGI (MCF7 breast): 31.8 µM
- TGI (MDA-MB-231 breast): 28 µM
- TGI (MDA-MB-435): 26.7 µM
- TGI (MDA-N): 28.1 µM
- TGI (MOLT-4 leukemia): 36.3 µM
- TGI (NCI-H226 lung): 29.8 µM
- TGI (NCI-H23 lung): 29 µM
- TGI (NCI-H460 lung): 25 µM
- TGI (NCI-H522 lung): 25.5 µM
- TGI (NCI/ADR-RES ovarian): 28.1 µM
- TGI (OVCAR-3 ovarian): 31.3 µM
- TGI (OVCAR-4 ovarian): 22.7 µM
- TGI (OVCAR-5 ovarian): 27.7 µM
- TGI (OVCAR-8 ovarian): 33.1 µM
- TGI (PC-3 prostate): 26.3 µM
- TGI (RPMI-8226 leukemia): 36.9 µM
- TGI (RXF 393 renal): 19.2 µM
- TGI (SF-268 CNS): 23 µM
- TGI (SF-295 CNS): 27.4 µM
- TGI (SF-539 CNS): 26.9 µM
- TGI (SK-MEL-2 melanoma): 18.4 µM
- TGI (SK-MEL-5 melanoma): 29.2 µM
- TGI (SK-OV-3 ovarian): 27.5 µM
- TGI (SN12C renal): 27.3 µM
- TGI (SNB-19 CNS): 16 µM
- TGI (SW-620 colon): 27.8 µM
- TGI (T-47D breast): 39.9 µM
- TGI (TK-10 renal): 29.1 µM
- TGI (U251 CNS): 27 µM
- TGI (UACC-257 melanoma): 33.2 µM
- TGI (UACC-62 melanoma): 27.2 µM
- TGI (UO-31 renal): 28.4 µM

Compound: CCN(CC)CCCNc1[nH]ncc2cc3c(nc4ccccc43)c(C)c12
- TGI (786-0 renal): 17.3 µM
- TGI (A498 renal): 28.7 µM
- TGI (A549 NSCLC): 26.7 µM
- TGI (ACHN renal): 21.9 µM
- TGI (BT-549 breast): 32.7 µM
- TGI (CAKI-1 renal): > 100 µM
- TGI (CCRF-CEM leukemia): 21.3 µM
- TGI (COLO 205 colon): 23.4 µM
- TGI (DU-145 prostate): 24.3 µM
- TGI (EKVX NSCLC): 23.5 µM
- TGI (HCC-2998 colon): 23.2 µM
- TGI (HCT-116 colon): 17.4 µM
- TGI (HCT-15 colon): 30 µM
- TGI (HL-60(TB) leukemia): 27.1 µM
- TGI (HOP-62 NSCLC): 42.2 µM
- TGI (HS 578T breast): 29.2 µM
- TGI (HT29 colon): 15.8 µM
- TGI (IGROV1 ovarian): 15.7 µM
- TGI (K-562 leukemia): > 100 µM
- TGI (KM12 colon): 18.5 µM
- TGI (LOX IMVI melanoma): 20.6 µM
- TGI (M14 melanoma): 52.3 µM
- TGI (MALME-3M melanoma): 31.4 µM
- TGI (MCF7 breast): 38.4 µM
- TGI (MDA-MB-231 breast): 19.4 µM
- TGI (MDA-MB-435): 36.1 µM
- TGI (MDA-N): 30.8 µM
- TGI (MOLT-4 leukemia): 5.43 µM
- TGI (NCI-H226 lung): 25.3 µM
- TGI (NCI-H23 lung): 28 µM
- TGI (NCI-H460 lung): 18.1 µM
- TGI (NCI-H522 lung): 16.3 µM
- TGI (NCI/ADR-RES ovarian): > 100 µM
- TGI (OVCAR-3 ovarian): 28.6 µM
- TGI (OVCAR-5 ovarian): 50.4 µM
- TGI (OVCAR-8 ovarian): 24.5 µM
- TGI (PC-3 prostate): 25.5 µM
- TGI (RPMI-8226 leukemia): 31.3 µM
- TGI (SF-268 CNS): 20.6 µM
- TGI (SF-295 CNS): 32.2 µM
- TGI (SF-539 CNS): 34.1 µM
- TGI (SK-MEL-2 melanoma): > 100 µM
- TGI (SK-MEL-28 melanoma): 32.5 µM
- TGI (SK-MEL-5 melanoma): 38 µM
- TGI (SK-OV-3 ovarian): 34.3 µM
- TGI (SN12C renal): 19.9 µM
- TGI (SNB-19 CNS): 27.5 µM
- TGI (SNB-75 CNS): 26.4 µM
- TGI (SW-620 colon): 17.4 µM
- TGI (T-47D breast): 29.4 µM
- TGI (TK-10 renal): 36.2 µM
- TGI (U251 CNS): 24.4 µM
- TGI (UACC-257 melanoma): 29.5 µM
- TGI (UACC-62 melanoma): 29.4 µM
- TGI (UO-31 renal): 24.5 µM

From PubChem BioAssay (NCI)
